Here are results for 29 compounds from US10399991B2, “Kv1.3 inhibitors and their medical applications” (4SC AG, priority 2015, dated 2019).

For one assay, the target named is Kv1.3 (Homo sapiens (Human), UniProt P22001). The assay can be described thus: Patch-clamp assay for inhibitory activity on Kv1.3 (whole cell patch-clamp recording). It counts as cell-based. The settings on record: n≥2 per concentration. Here is the method: Patch-Clamp Assay for Inhibitory Activity on Kv1.3
For a description of a Kv1.3 patch-clamp assay, see Grissmer et al., Mol. Pharmacol. 1994, 45, 1227; whole cell patch-clamp recording was performed with n≥2 individual experiments at each compound concentration using different cells. Three or more different concentrations were determined per dose response curve.

For assay [1], the system named is Peripheral blood mononuclear cells (PBMC). The assay can be described thus: T cell proliferation assay (anti-CD3 activated PBMC, BrdU based cell proliferation ELISA). The settings on record: human PBMC, TRAM-34 (5 μM), 50 ng/ml anti-CD3, 48 hours; read-out: IC50(BrdU incorporation). The text has this: T cell proliferation assay (in analogy to Pegoraro et al., Bioorg. Med. Chem. Lett. 2009, 19, 2299)
Peripheral blood mononuclear cells (PBMC) from healthy human donors were isolated by centrifugation over a density gradient in an aqueous solution, comprising a high molecular weight polysaccharide and sodium diatrizionate, and having a density of 1.077±0.001 (Ficoll-Hypaque by Sigma-Aldrich, Germany; according to manufacturer's instructions). Purified PBMC were washed twice with PBS and resuspended in RPMI1640 culture medium (Gibco—Life Technologies) supplemented with 10% heat inactivated fetal calf serum, 1.5 mM L-glutamine, 100 U penicillin/ml, and 100 […] (all from PAA—GE Healthcare). For stimulation, PBMC were seeded at 1×10^5 cells/well, incubated with TRAM-34 (5 μM) and the test compounds for 4 h and activated with 50 ng/ml anti-CD3 (from eBioscience). After 48 hours proliferation was measured using a BrdU based cell proliferation ELISA according to the manual.
In general terms: In an ELISA, binding on a coated surface is turned into a signal by an enzyme label.

Another assay has as its system female Dark Agouti rats. The assay can be described thus: Pristane-induced Arthritis (PIA) model. The settings on record: for Arthritic Index (AI): maximum AI=16, controls AI around 14; for amelioration of arthritis: Example 53 60 mg/kg p.o. sid, Example 34 45 mg/kg p.o. bid. It counts as in vivo, rat. Here is the method:
Pristane-induced Arthritis (PIA) Model:
Arthritis was induced in female Dark Agouti rats by intradermal injection of 150 μL/rat pristane into the base of the tail on DAY0, according to Vingsbo et al., Am. J. Pathol. 1996, 149, 1675. Compound treatment was started on DAY16 and continued until DAY30, dosing Example 53 at 60 mg/kg, p.o., sid, and Example 34 at 45 mg/kg, p.o., bid, each in a lipophilic formulation. As a positive control, methotrexate (MTX) was dosed i.p., sid, with 0.05 mg/kg, also starting DAY16. Arthritis development was monitored daily by a macroscopic scoring system for the four limbs ranging from 0 to 4 (0=no visible effects of arthritis; 1=edema and/or erythema of one digit; 2=edema and/or erythema of two joints; 3=edema and/or erythema of more than two joints; 4=severe arthritis of the entire paw and digits, associated with ankylosis and deformity of the paw.), resulting in an Arthritic Index (AI) reflecting the sum of scores of all 4 limbs per rat (maximum AI=16).

Each structure is given as a SMILES string.

Kv1.3, sequence (P22001 whole entry): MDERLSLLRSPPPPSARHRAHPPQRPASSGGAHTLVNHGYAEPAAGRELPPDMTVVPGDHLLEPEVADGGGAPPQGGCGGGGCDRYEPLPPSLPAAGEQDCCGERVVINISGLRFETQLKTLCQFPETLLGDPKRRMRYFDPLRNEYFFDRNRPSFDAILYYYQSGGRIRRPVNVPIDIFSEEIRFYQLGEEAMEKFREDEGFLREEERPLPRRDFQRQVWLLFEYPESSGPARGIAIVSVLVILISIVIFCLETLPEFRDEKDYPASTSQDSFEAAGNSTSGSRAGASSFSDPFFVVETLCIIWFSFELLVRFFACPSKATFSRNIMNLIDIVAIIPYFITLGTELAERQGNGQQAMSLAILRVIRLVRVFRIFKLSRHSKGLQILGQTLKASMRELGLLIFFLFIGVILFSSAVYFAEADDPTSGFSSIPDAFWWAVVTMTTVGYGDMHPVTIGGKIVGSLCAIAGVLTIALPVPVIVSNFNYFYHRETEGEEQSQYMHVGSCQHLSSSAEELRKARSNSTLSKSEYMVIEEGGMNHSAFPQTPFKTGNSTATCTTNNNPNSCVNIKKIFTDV

In the case of `Cc1c(-c2ccccc2F)c2cc3c(C)coc3c(C)c2[nH]c1=O` [Example 30, 5-(2-fluorophenyl)-3,6,9-trimethylfuro[3,2-g]quinolin-7(8H)-one], the values for the IC50 (at Kv1.3; in assay [1]) were no more than 500 nM and 1300 to 3000 nM, respectively.

Take `CCc1coc2c(C)c3oc(=O)c(C)c(-c4ccccc4)c3cc12` [Example 16, 3-ethyl-6,9-dimethyl-5-phenyl-7H-furo[3,2-g]chromen-7-one]: the IC50 is no more than 500 nM against Kv1.3 and no more than 1200 nM in assay [1].

For `CCOc1ccccc1-c1c(C)c(=O)oc2c(C)c3occ(C)c3cc12` [Example 10, 5-(2-ethoxyphenyl)-3,6,9-trimethyl-7H-furo[3,2-g]chromen-7-one], the IC50 was no more than 500 nM on Kv1.3 and no more than 1200 nM in assay [1].

On to `COc1ccccc1-c1c(C)c(=O)oc2c(C)c3occ(C)c3cc12` [Example 7, 5-(2-methoxyphenyl)-3,6,9-trimethyl-7H-furo[3,2-g]chromen-7-one], for which the IC50 against Kv1.3 is no more than 500 nM; in assay [1], 1300 to 3000 nM.

On to `Cc1coc2c(C)c3[nH]c(=O)c(Br)c(-c4ccccc4)c3cc12` [Example 26, 6-bromo-3,9-dimethyl-5-phenylfuro[3,2-g]quinolin-7(8H)-one], for which the IC50 against Kv1.3 was no more than 500 nM; in assay [1], no more than 1200 nM.

As to `Cc1c(-c2ccccc2)c2cc3c(C)coc3nc2n(C)c1=O` [Example 49, 3,6,8-trimethyl-5-phenylfuro[2,3-b][1,8]naphthyridin-7(8H)-one], the IC50 against Kv1.3 was no more than 500 nM; in assay [1], 3100 to 15000 nM.

For the compound `Cc1c2oc(=O)cc(-c3ccccc3)c2cc2c(C3CC3)coc12` [Example 41, 3-cyclopropyl-9-methyl-5-phenyl-7H-furo[3,2-g]chromen-7-one], the values for the IC50 (against Kv1.3; in assay [1]) were no more than 500 nM and 1300 to 3000 nM, respectively.

Take `Cc1c(-c2ccccc2)c2cc3c(C)coc3nc2oc1=O` [Example 25, 3,6-dimethyl-5-phenyl-7H-furo[2,3-b]pyrano[3,2-e]pyridin-7-one]: the figures for the IC50 (on Kv1.3; in assay [1]) were no more than 500 nM and 1300 to 3000 nM, respectively.

As for `Cc1c(-c2ccccc2)c2cc3c(C)csc3c(C)c2oc1=O` [Example 43, 3,6,9-trimethyl-4-phenyl-2H-thieno[3,2-g]chromen-2-one], the IC50 was no more than 500 nM against Kv1.3 and 1300 to 3000 nM in assay [1].

Consider `Cc1c(-c2ccccc2)c2cc3c(C)coc3c(C)c2n(C)c1=O` [Example 34, 3,6,8,9-tetramethyl-5-phenylfuro[3,2-g]quinolin-7(8H)-one], for which the IC50 at Kv1.3 is no more than 500 nM; in assay [1], 1300 to 3000 nM. The “Arthritic Index (AI)” value in the assay on female Dark Agouti rats (45 mg/kg, p.o., bid, DAY16 to DAY30) was “around 9.1”. The amelioration of arthritis entry in the assay with female Dark Agouti rats (DAY16 to DAY30) is “significant amelioration of arthritis”.

As for `CN(Cc1cnc2nc(N)nc(N)c2n1)c1ccc(C(=O)N[C@@H](CCC(=O)O)C(=O)O)cc1` [MTX, methotrexate, reference compound], in the assay with female Dark Agouti rats (0.05 mg/kg, i.p., sid, from DAY16), the “Arthritic Index (AI)” value is roughly 8.7.

Take `Cc1c(-c2ccccc2)c2cc3c(C)coc3c(C)c2[nH]c1=O` [Example 31, 3,6,9-trimethyl-5-phenylfuro[3,2-g]quinolin-7(8H)-one]: the IC50 against Kv1.3 was no more than 500 nM; in assay [1], no more than 1200 nM.

For `Cc1c(-c2ccccc2)c2cc3c(C)coc3c(C)c2oc1=O` [Example 9, 3,6,9-trimethyl-5-phenyl-7H-furo[3,2-g]chromen-7-one], the IC50 was no more than 500 nM against Kv1.3 and no more than 1200 nM in assay [1].

`Cc1c(-c2cccnc2)c2cc3c(C)coc3c(C)c2n(C)c1=O` [Example 55, 3,6,8,9-tetramethyl-5-(pyridin-3-yl)furo[3,2-g]quinolin-7(8H)-one]: the values for the IC50 (at Kv1.3; in assay [1]) were 501 to 1500 nM and 3100 to 15000 nM, respectively.

For `Cc1c(-c2cccnc2)c2cc3c(C)coc3c(C)c2oc1=O` [Example 53, 3,6,9-trimethyl-5-(pyridin-3-yl)-7H-furo[3,2-g]chromen-7-one], the IC50 is no more than 500 nM at Kv1.3 and 1300 to 3000 nM in assay [1]. Further, the “Arthritic Index (AI)” value with female Dark Agouti rats (60 mg/kg, p.o., sid, DAY16 to DAY30) is reported as “around 10.4”. The amelioration of arthritis entry in the assay with female Dark Agouti rats (DAY16 to DAY30) is “significant amelioration of arthritis”.

As for `Cc1csc2c(C)c3oc(=O)cc(-c4ccccc4)c3cc12` [Example 37, 6,9-dimethyl-4-phenyl-2H-thieno[3,2-g]chromen-2-one], the values for the IC50 (against Kv1.3; in assay [1]) were 501 to 1500 nM and 3100 to 15000 nM, respectively.

With `COc1ccccc1-c1cc(=O)oc2c(C)c3occ(C)c3cc12` [Example 1, 5-(2-methoxyphenyl)-3,9-dimethyl-7H-furo[3,2-g]chromen-7-one], the figures for the IC50 (on Kv1.3; in assay [1]) were no more than 500 nM and 3100 to 15000 nM, respectively.

As to `Cc1c(CN2CCOCC2)oc2c(C)c3oc(=O)cc(-c4ccccc4)c3cc12` [Example 14, 3,9-dimethyl-2-(morpholinomethyl)-5-phenyl-7H-furo[3,2-g]chromen-7-one], at Kv1.3, the IC50 lay within 1500 to 3000 nM.

At Kv1.3, `Cc1c(-c2ccccc2Cl)c2cc3c(C)coc3c(C)c2n(C)c1=O` [Example 60, 5-(2-chlorophenyl)-3,6,8,9-tetramethylfuro[3,2-g]quinolin-7(8H)-one] displayed an IC50 of no more than 500 nM.

As for `Cc1c(-c2cccnc2)c2cc3c(C)coc3c(C)c2[nH]c1=O` [Example 54, 3,6,9-trimethyl-5-(pyridin-3-yl)furo[3,2-g]quinolin-7(8H)-one], the values for the IC50 (against Kv1.3; in assay [1]) were no more than 500 nM and 3100 to 15000 nM, respectively.

`COc1cccc(-c2cc(=O)oc3c(C)c4occ(C)c4cc23)c1` [Example 2, 5-(3-methoxyphenyl)-3,9-dimethyl-7H-furo[3,2-g]chromen-7-one] came in with an IC50 against Kv1.3 of 1500 to 3000 nM.

Consider `Cc1c(N2CCOCC2)oc2c(C)c3oc(=O)cc(-c4ccccc4)c3cc12` [Example 12, 3,9-dimethyl-2-morpholino-5-phenyl-7H-furo[3,2-g]chromen-7-one], for which the IC50 against Kv1.3 lay within 1500 to 3000 nM.

With `Cc1c(-c2ccccc2F)c2cc3c(C)coc3c(C)c2oc1=O` [Example 5, 5-(2-fluorophenyl)-3,6,9-trimethyl-7H-furo[3,2-g]chromen-7-one], the IC50 against Kv1.3 was no more than 500 nM; in assay [1], 1300 to 3000 nM.

The compound `Cc1noc2c(C)c3oc(=O)cc(-c4ccccc4)c3cc12` [Example 50, 3,9-dimethyl-5-phenyl-7H-chromeno[6,7-d]isoxazol-7-one] yielded an IC50 on Kv1.3 of 1500 to 3000 nM.

Consider `Cc1c(-c2ccccc2Cl)c2cc3c(C)coc3c(C)c2[nH]c1=O` [Example 40, 5-(2-chlorophenyl)-3,6,9-trimethylfuro[3,2-g]quinolin-7(8H)-one], for which the IC50 was no more than 500 nM at Kv1.3 and no more than 1200 nM in assay [1].

As for `Cc1c(-c2ccccc2Cl)c2cc3c(C)coc3c(C)c2oc1=O` [Example 11, 5-(2-chlorophenyl)-3,6,9-trimethyl-7H-furo[3,2-g]chromen-7-one], the IC50 at Kv1.3 was no more than 500 nM; in assay [1] it was 1300 to 3000 nM.

Take `Cc1cccc(-c2cc(=O)oc3cc4occ(C)c4cc23)c1` [Example 18, 3-methyl-5-(m-tolyl)-7H-furo[3,2-g]chromen-7-one]: the IC50 at Kv1.3 lay in the range of 501 to 1500 nM.

On Kv1.3, `COc1ncccc1-c1c(C)c(=O)n(C)c2c(C)c3occ(C)c3cc12` [Example 64, 5-(2-methoxypyridin-3-yl)-3,6,8,9-tetramethylfuro[3,2-g]quinolin-7(8H)-one] displayed an IC50 of 1500 to 3000 nM.

`Cc1c(-c2ccccc2)c2cc3c(C4CC4)coc3c(C)c2oc1=O` [Example 42, 3-cyclopropyl-6,9-dimethyl-5-phenyl-7H-furo[3,2-g]chromen-7-one] displayed an IC50 against Kv1.3 of 501 to 1500 nM.
